Several values for one entry are separate records, joined by “and”; a condition that tells them apart may be missing. Equal entries are not always repeated.
Columns and labels:
[1] = tested on: H1299 cells; test: MTT detection method, inhibitory effect against H1299 cells; format: cell-based
Description: (§1) MTT detection method was used, and MTT is a yellow compound and a dye accepting hydrogen ions, and can be used as the respiratory chain in mitochondria of viable cells. Under the action of succinate dehydrogenase and cytochrome C, the tetrazolium ring broke to form blue formanzan crystal, and the formation amount of formanzan crystal was only directly proportional to the viable counts. The formanzan crystal formed by reduction can dissolve in dimethyl sulfoxide (DMSO), and the optical density (OD) value can be determined at 490 nm using ELISA, to reflect the viable counts.
(§2) • Lung cancer cell lines: A549 and H1299. • Experimental materials: lung cancer cell lines, instruments and tools for cell culture, MTT, the compound mother liquid (10 mmol/L), and the positive control drug Src inhibitor pp1. 1. Specific Method • (3-1) Cell lines A549 and H1299 were recovered, and when the cells were in good conditions, namely cells grew to about 80% after one passage (i.e. the logarithmic growth phase), the cells were planked (96-well plate). • (3-2) Firstly, cells were collected, and the concentration of cell suspension was adjusted with counting chamber. Cells were seeded in 96-well plate at 1000˜10000 cells/well, and the detailed cell numbers in each well were dependent on the growth rate of different cells and the action time of drugs. A549 cells were seeded at 5000 cells, while H1299 cells were also seeded at 5000 cells, 200 μl for each well (100 μl cell suspension+100 μl drug dilution at different concentration gradient). The edge wells (36) were added 200 μl culture media (for prevention of edge effect). • (3-3) After planking and adding drugs, the plate was treated at 24 h, 48 h, and 72 h, and then for coloration, each well was added 200 μl culture media containing 20 μl MTT solution (5 mg/mL). The plate was continually cultured for 1˜4 hours, the incubation was stopped, and the culture supernatant fluid in each well was carefully absorbed. For suspension cells, the culture supernatant fluid in each well need be centrifuged before drawing. 150 μl DMSO was added to each well, and the plate was shaken on a shaking table for 15˜20 min, to allow the crystals to be completely dissolved. • (3-4) Colorimetry: The colorimetry was performed by ELISA, and the optical absorption value of each well was tested at a wavelength of 490 nm or 570 nm, and the result was recorded. • (3-5) Calculation Inhibition ratio=(the control−the drug)/the control×100% • IC50 (50% inhibitory concentration) can be calculated by spass software based on the inhibitory ratio at different concentration. II. Experimental Results • A549 cells were treated at 4 h, 24 h, 48 h, 72 h, and the drug dose was divided into the light concentration group (10 μm, 25 μm, 40 μm) and the high concentration group (50 μm, 80 μm, 100 μm), that were seeded at 6000 cells/well and 5000 cells/well, respectively, to carry out the experiment.
H1299 cells were seeded at 5000 cells/well, and after treatment for 4 h, 24 h, 48 h, and 72 h, the results were shown in Tables 5-9 and FIGS. 5-8: […]

[2] = tested on: A549 cells; test: MTT detection method, inhibitory effect against A549 cells; format: cell-based
Description: as §1, §2

SMILES: CC(C)(C)n1nc(-c2ccc(OCCOCCOCCOCCO)cc2)c2c(N)ncnc21 [Compound 5, 2-(2-(2-(2-(4-(4-amino-1-tert-butyl-1H-pyrazolo[3,4-d]pyrimidin-3-)phenoxy)ethoxy)ethoxy)ethoxy)ethanol]
- The inhibitory ratio (%) for three parallel assays ([1]; 4 h, 10 μm): 4% and 6%
- The mean inhibitory ratio (%) ([1]; 4 h, 10 μm): 4%
- The inhibitory ratio (%) for three parallel assays ([1]; 4 h, 25 μm): 6% and 7%
- The mean inhibitory ratio (%) ([1]; 4 h, 25 μm): 7%
- The inhibitory ratio (%) for three parallel assays ([1]; 4 h, 40 μm): 7% and 8%
- The mean inhibitory ratio (%) ([1]; 4 h, 40 μm): 8%
- The inhibitory ratio (%) for three parallel assays ([1]; 4 h, 50 μm): 13% and 9%
- The mean inhibitory ratio (%) ([1]; 4 h, 50 μm): 10%
- The inhibitory ratio (%) for three parallel assays ([1]; 4 h, 80 μm): 12% and 13%
- The mean inhibitory ratio (%) ([1]; 4 h, 80 μm): 12%
- The inhibitory ratio (%) for three parallel assays ([1]; 4 h, 100 μm): 13% and 15% and 14%
- The mean inhibitory ratio (%) ([1]; 4 h, 100 μm): 14%
- The inhibitory ratio (%) for three parallel assays ([1]; 24 h, 10 μm): 10% and 8% and 13%
- The mean inhibitory ratio (%) ([1]; 24 h, 10 μm): 11%
- The inhibitory ratio (%) for three parallel assays ([1]; 24 h, 25 μm): 14% and 13%
- The mean inhibitory ratio (%) ([1]; 24 h, 25 μm): 14%
- The inhibitory ratio (%) for three parallel assays ([1]; 24 h, 40 μm): 11% and 13% and 14%
- The mean inhibitory ratio (%) ([1]; 24 h, 40 μm): 13%
- The inhibitory ratio (%) for three parallel assays ([1]; 24 h, 50 μm): 20% and 25% and 26%
- The mean inhibitory ratio (%) ([1]; 24 h, 50 μm): 24%
- The inhibitory ratio (%) for three parallel assays ([1]; 24 h, 80 μm): 28% and 26% and 24%
- The mean inhibitory ratio (%) ([1]; 24 h, 80 μm): 26%
- The inhibitory ratio (%) for three parallel assays ([1]; 24 h, 100 μm): 29% and 31% and 26%
- The mean inhibitory ratio (%) ([1]; 24 h, 100 μm): 28%
- The inhibitory ratio (%) for three parallel assays ([1]; 48 h, 10 μm): 4% and 5% and 6%
- The mean inhibitory ratio (%) ([1]; 48 h, 10 μm): 5%
- The inhibitory ratio (%) for three parallel assays ([1]; 48 h, 25 μm): 15% and 18% and 14%
- The mean inhibitory ratio (%) ([1]; 48 h, 25 μm): 16%
- The inhibitory ratio (%) for three parallel assays ([1]; 48 h, 40 μm): 22% and 25%
- The mean inhibitory ratio (%) ([1]; 48 h, 40 μm): 23%
- The inhibitory ratio (%) for three parallel assays ([1]; 48 h, 50 μm): 24% and 26%
- The mean inhibitory ratio (%) ([1]; 48 h, 50 μm): 25%
- The inhibitory ratio (%) for three parallel assays ([1]; 48 h, 80 μm): 36% and 38%
- The mean inhibitory ratio (%) ([1]; 48 h, 80 μm): 37%
- The inhibitory ratio (%) for three parallel assays ([1]; 48 h, 100 μm): 42% and 41%
- The mean inhibitory ratio (%) ([1]; 48 h, 100 μm): 41%
- The inhibitory ratio (%) for three parallel assays ([1]; 72 h, 10 μm): 8% and 5% and 2%
- The mean inhibitory ratio (%) ([1]; 72 h, 10 μm): 5%
- The inhibitory ratio (%) for three parallel assays ([1]; 72 h, 25 μm): 7% and 4% and 3%
- The mean inhibitory ratio (%) ([1]; 72 h, 25 μm): 5%
- The inhibitory ratio (%) for three parallel assays ([1]; 72 h, 40 μm): 18% and 21% and 23%
- The mean inhibitory ratio (%) ([1]; 72 h, 40 μm): 20%
- The inhibitory ratio (%) for three parallel assays ([1]; 72 h, 50 μm): 26% and 23%
- The mean inhibitory ratio (%) ([1]; 72 h, 50 μm): 24%
- The inhibitory ratio (%) for three parallel assays ([1]; 72 h, 80 μm): 37% and 36% and 38%
- The mean inhibitory ratio (%) ([1]; 72 h, 80 μm): 37%
- The inhibitory ratio (%) for three parallel assays ([1]; 72 h, 100 μm): 45% and 41% and 39%
- The mean inhibitory ratio (%) ([1]; 72 h, 100 μm): 42%
- The inhibitory ratio (%) for three parallel assays ([2]; 4 h, 10 μm): 26.88% and 26.25% and 28.75%
- The mean inhibitory ratio (%) ([2]; 4 h, 10 μm): 27.29%
- The mean inhibitory ratio (%) ([2]; 4 h, 25 μm): 21.77%
- The inhibitory ratio (%) for three parallel assays ([2]; 4 h, 40 μm): 23.44% and 20.94% and 18.13%
- The mean inhibitory ratio (%) ([2]; 4 h, 40 μm): 20.83%
- The inhibitory ratio (%) for three parallel assays ([2]; 4 h, 50 μm): 16.57% and 11.14% and 14.57%
- The mean inhibitory ratio (%) ([2]; 4 h, 50 μm): 14.10%
- The inhibitory ratio (%) for three parallel assays ([2]; 4 h, 80 μm): 20.86% and 20.29% and 14.57%
- The mean inhibitory ratio (%) ([2]; 4 h, 80 μm): 18.57%
- The inhibitory ratio (%) for three parallel assays ([2]; 4 h, 100 μm): 24.00% and 20.86% and 22.57%
- The mean inhibitory ratio (%) ([2]; 4 h, 100 μm): 22.48%
- The inhibitory ratio (%) for three parallel assays ([2]; 24 h, 10 μm): 14.35% and 15.65% and 13.26%
- The mean inhibitory ratio (%) ([2]; 24 h, 10 μm): 14.42%
- The inhibitory ratio (%) for three parallel assays ([2]; 24 h, 25 μm): 22.39% and 13.70% and 14.78%
- The mean inhibitory ratio (%) ([2]; 24 h, 25 μm): 16.96%
- The inhibitory ratio (%) for three parallel assays ([2]; 24 h, 40 μm): 26.30% and 16.52% and 14.13%
- The mean inhibitory ratio (%) ([2]; 24 h, 40 μm): 18.99%
- The inhibitory ratio (%) for three parallel assays ([2]; 24 h, 50 μm): 17.08% and 18.33% and 17.92%
- The mean inhibitory ratio (%) ([2]; 24 h, 50 μm): 17.78%
- The inhibitory ratio (%) for three parallel assays ([2]; 24 h, 80 μm): 22.50% and 20.83% and 20.21%
- The mean inhibitory ratio (%) ([2]; 24 h, 80 μm): 21.18%
- The inhibitory ratio (%) for three parallel assays ([2]; 24 h, 100 μm): 27.92% and 27.50%
- The mean inhibitory ratio (%) ([2]; 24 h, 100 μm): 27.78%
- The mean inhibitory ratio (%) ([2]; 48 h, 10 μm): 9.64%
- The inhibitory ratio (%) for three parallel assays ([2]; 48 h, 25 μm): 14.84% and 14.22% and 13.91%
- The mean inhibitory ratio (%) ([2]; 48 h, 25 μm): 14.32%
- The inhibitory ratio (%) for three parallel assays ([2]; 48 h, 40 μm): 19.22% and 26.72% and 20.63%
- The mean inhibitory ratio (%) ([2]; 48 h, 40 μm): 22.19%
- The inhibitory ratio (%) for three parallel assays ([2]; 48 h, 50 μm): 15.33% and 13.33% and 12.83%
- The mean inhibitory ratio (%) ([2]; 48 h, 50 μm): 13.83%
- The inhibitory ratio (%) for three parallel assays ([2]; 48 h, 80 μm): 15.33% and 19.67% and 18.00%
- The mean inhibitory ratio (%) ([2]; 48 h, 80 μm): 17.67%
- The inhibitory ratio (%) for three parallel assays ([2]; 48 h, 100 μm): 30.50% and 31.33% and 31.67%
- The mean inhibitory ratio (%) ([2]; 48 h, 100 μm): 31.17%
- The inhibitory ratio (%) for three parallel assays ([2]; 72 h, 10 μm): 9.82% and 8.11% and 15.05%
- The mean inhibitory ratio (%) ([2]; 72 h, 10 μm): 10.99%
- The inhibitory ratio (%) for three parallel assays ([2]; 72 h, 25 μm): 35.41% and 32.43% and 39.37%
- The mean inhibitory ratio (%) ([2]; 72 h, 25 μm): 35.74%
- The inhibitory ratio (%) for three parallel assays ([2]; 72 h, 40 μm): 50.18% and 45.68% and 50.45%
- The mean inhibitory ratio (%) ([2]; 72 h, 40 μm): 48.77%
- The inhibitory ratio (%) for three parallel assays ([2]; 72 h, 50 μm): 20.27% and 17.70% and 22.30%
- The mean inhibitory ratio (%) ([2]; 72 h, 50 μm): 20.09%
- The inhibitory ratio (%) for three parallel assays ([2]; 72 h, 80 μm): 29.59% and 28.51% and 30.14%
- The mean inhibitory ratio (%) ([2]; 72 h, 80 μm): 29.41%
- The inhibitory ratio (%) for three parallel assays ([2]; 72 h, 100 μm): 53.11% and 52.70% and 54.05%
- The mean inhibitory ratio (%) ([2]; 72 h, 100 μm): 53.29%
